Reference: patent US10174132B2, “Heparan sulfate synthesis” (UNIVERSITY OF GEORGIA RESEARCH FOUNDATION, INC., priority 2009, dated 2019)
Structures can show the parent of a compound that is named as a salt. Where two headings read alike, the source gives them in different places.

Target: T1, recombinant human BACE-1 (Homo sapiens, UniProt P56817)
T1 construct: purchased R & D Systems
Assay: BACE-1 FRET peptide cleavage assay
Assay type: biochemical
Details: FRET peptide with Swedish variant, 20 mM sodium acetate, 0.1% Triton-X-100, pH 4.5, 2 h, 25° C., triplicate
Procedure: The ability of the HS oligosaccharides to inhibit BACE-1 cleavage of APP was assessed using a fluorescent resonance energy transfer (FRET) peptide cleavage assay employing the Swedish amino acid variant FRET peptide 5-FAM-Glu-Val-Asn-Leu-Asp-Ala-Phe-Lys(QXL520)-OH. When intact, the amino terminal fluorophore is quenched, but upon enzymatic cleavage, it is released from quencher and fluoresces at 520 nm.
BACE inhibition assays: The ability of the compounds to inhibit BACE-1 cleavage of APP was assessed using a fluorescent resonance energy transfer (FRET) peptide cleavage assay employing the FRET peptide HiLyteFluor™488-Glu-Val-Asn-Leu-Asp-Ala-Glu-Phe-Lys(QXL520)-OH (Anaspec Inc, San Jose, Calif.), containing the Swedish amino acid variant. Assays were performed in triplicate in 96-well black plates (Greiner Bio-One Ltd) in a total volume of 100 μl of 20 mM sodium acetate, 0.1% Triton-X-100, pH 4.5 using 114 pmoles FRET peptide/well and 0.1 μg of recombinant human BACE-1 (R & D Systems; specific activity >3.5 pmol/min/μg). Inhibitors were added at 0.01 to 50 μg/mL and mixed with enzyme prior to addition of substrate. Appropriate controls for enzyme activity and background fluorescence were employed and plates were incubated (2 h, 25° C.) with reaction stopped by addition of 100 μl 2.5 M sodium acetate. Fluorescence 480ex/520em was measured on a Polarstar plate reader (BMG LabTechnologies, U.K.) and data were analyzed by plotting log concentration of inhibitor against percent inhibition and using a logistic sigmoidal curve fitting function using OriginPro 8 software (OriginLab Corporation, MA).

[1] = read-out: IC50 (μg/ml), inhibitory activity for cleavage of FRET peptide by BACE-1 (converted)
[2] = read-out: IC50 (μmol), inhibitory activity for cleavage of FRET peptide by BACE-1

T1 sequence (P56817 46-501): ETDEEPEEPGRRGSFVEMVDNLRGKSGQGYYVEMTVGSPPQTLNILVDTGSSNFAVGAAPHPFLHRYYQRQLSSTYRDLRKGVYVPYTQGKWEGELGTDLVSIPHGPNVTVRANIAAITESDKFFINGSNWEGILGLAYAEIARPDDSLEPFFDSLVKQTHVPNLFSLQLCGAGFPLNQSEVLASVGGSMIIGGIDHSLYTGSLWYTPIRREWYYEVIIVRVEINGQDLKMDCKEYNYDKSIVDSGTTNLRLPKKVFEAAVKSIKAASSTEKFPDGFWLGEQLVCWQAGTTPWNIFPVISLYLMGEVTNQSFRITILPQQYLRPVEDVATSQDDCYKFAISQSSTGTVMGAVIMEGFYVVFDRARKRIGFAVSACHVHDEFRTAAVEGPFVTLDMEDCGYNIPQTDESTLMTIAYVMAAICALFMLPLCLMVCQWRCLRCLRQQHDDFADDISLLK

Structure (SMILES): NCCCCCOC1OC(COS(=O)(=O)O)C(OC2OC(C(=O)O)C(OC3OC(COS(=O)(=O)O)C(OC4OC(C(=O)O)C(OC5OC(COS(=O)(=O)O)C(OC6OC(C(=O)O)C(O)C(O)C6O)C(O)C5NS(=O)(=O)O)C(O)C4O)C(O)C3NS(=O)(=O)O)C(O)C2O)C(O)C1NS(=O)(=O)O [Compound 69, 5-aminopentyl [(β-D-glucopyranosyluronate)-(1→4)-(2-deoxy-2-sulfoamino-6-O-sulfonato-α-D-glucopyranoside)-(1→4)-O-(α-L-idopyranosyluronate)-(1→4)-O-(2-deoxy-2-sulfoamino-6-O-sulfanate-α-D-glucopyranoside)-(1→4)-(β-D-glucopyranosyluronate)]-(1→4)-O-2-deoxy-N-sulfoamino-6-O-sulfonate-α-D-glucopyranoside nonasodium salt]
- IC50 [1]: 40.1 µM
- IC50 [2]: 36 µM

Structure (SMILES): CC(=O)NC1C(OC2C(C(=O)O)OC(OC3C(COS(=O)(=O)O)OC(OCCCCCN)C(NC(C)=O)C3O)C(O)C2O)OC(COS(=O)(=O)O)C(OC2OC(C(=O)O)C(O)C(O)C2O)C1O [Compound 82, 5-aminopentyl [(α-L-idopyranosyluronate)-(1→4)-(2-acetamido-2-deoxy-6-O-sulfonate-α-D-glucopyranoside)-(1→4)-O-(α-L-idopyranosyluronate-(1→4)-O-2-acetamido-2-deoxy-6-O-sulfonate-α-D-glucopyranosidetetrasodium salt]
- IC50 [1]: 34.2 µM
- IC50 [2]: 32 µM

Structure (SMILES): CC(=O)NC1C(OC2C(C(=O)O)OC(OC3C(COS(=O)(=O)O)OC(OCCCCCN)C(NC(C)=O)C3O)C(O)C2O)OC(COS(=O)(=O)O)C(OC2OC(C(=O)O)C(O)C(O)C2O)C1O [Compound 76, 5-aminopentyl [(β-D-glucopyranosyluronate)-(1→4)-(2-acetamido-2-deoxy-6-O-sulfanate-α-D-glucopyranoside)-(1→4)-O-(β-D-glucopyranosyluronate-(1→4)-O-2-acetamido-2-deoxy-6-O-sulfanate-α-D-glucopyranosidetetrasodium salt]
- IC50 [1]: 38.2 µM
- IC50 [2]: 35 µM

Structure (SMILES): CC(=O)NC1C(OC2C(C(=O)O)OC(OC3C(COS(=O)(=O)O)OC(OCCCCCN)C(NC(C)=O)C3O)C(O)C2O)OC(COS(=O)(=O)O)C(OC2OC(C(=O)O)C(O)C(O)C2O)C1O [Compound 80, 5-aminopentyl [(α-L-idopyranosyluronate)-(1→4)-O-(2-acetamido-2-deoxy-6-O-sulfonate-α-D-glucopyranoside)-(1→4)-O-(β-D-glucopyranosyluronate)]-(1→4)-(2-acetamido-2-deoxy-6-O-sulfonate-α-D-glucopyranosidetetrasodium salt]
- IC50 [1]: 102 µM
- IC50 [2]: 94 µM

Structure (SMILES): CC(=O)NC1C(OC2C(C(=O)O)OC(OC3C(COS(=O)(=O)O)OC(OCCCCCN)C(NC(C)=O)C3O)C(O)C2O)OC(COS(=O)(=O)O)C(OC2OC(C(=O)O)C(O)C(O)C2O)C1O [Compound 78, 5-Aminopentyl[β-D-glucopyranosyluronate-(1→4)-(2-acetamido-2-deoxy-6-O-sulfonate-α-D-glucopyranoside)-(1→4)-α-L-idopyranosyluronate)]-(1→4)-2-acetamido-2-deoxy-6-O-sulfonate-α-D-glucopyranoside tetrasodium salt]
- IC50 [1]: > 294 µM

Structure (SMILES): CC(=O)NC1C(OC2C(C(=O)O)OC(OC3C(COS(=O)(=O)O)OC(OCCCCCN)C(NC(C)=O)C3O)C(OS(=O)(=O)O)C2O)OC(COS(=O)(=O)O)C(OC2OC(C(=O)O)C(O)C(O)C2O)C1O [Compound 84, 5-Aminopentyl [(α-L-idopyranosyluronate)-(1→4)-O-(2-acetamido-2-deoxy-6-O-sulfonate-α-D-glucopyranoside)-(1→4)-O-(2-O-sulfonato-α-L-idopyranosyl-uronate)]-(1→4)-2-deoxy-2-acetamido-6-O-sulfonate-α-D-glucopyranoside penta sodium salt]
- IC50 [1]: > 272 µM

Structure (SMILES): CC(=O)NC1C(OC2C(C(=O)O)OC(OC3C(COS(=O)(=O)O)OC(OCCCCCN)C(NC(C)=O)C3O)C(OS(=O)(=O)O)C2O)OC(COS(=O)(=O)O)C(OC2OC(C(=O)O)C(O)C(O)C2O)C1O [Compound 85, 5-Aminopentyl [((3-D-glucopyranosyluronate)-(1→4)-O-(2-acetamido-2-deoxy-6-O-sulfonato-α-D-glucopyranoside)-(1→4)-O-(2-O-sulfonato-α-L-idopyranosyluronate)]-(1→4)-2-deoxy-2-acetamido-6-O-sulfonate-α-D-glucopyranosidepentasodium salt]
- IC50 [1]: 152 µM
- IC50 [2]: 138 µM

Structure (SMILES): NCCCCCOC1OC(COS(=O)(=O)O)C(OC2OC(C(=O)O)C(OC3OC(COS(=O)(=O)O)C(OC4OC(C(=O)O)C(O)C(O)C4O)C(O)C3NS(=O)(=O)O)C(O)C2OS(=O)(=O)O)C(O)C1NS(=O)(=O)O [Compound 86, 5-Aminopentyl [(β-D-glucopyranosyluronate)-(1→4)-O-(2-deoxy-2-sulfamino-6-O-sulfonate-α-D-glucopyranoside)-(1→4)-O-(2-O-sulfonate-α-L-idopyranosyluronate)-(1→4)-2-deoxy-2-sulfoamino-6-O-sulfonate-α-D-glucopyranosideheptasodium salt]
- IC50 [1]: > 255 µM
